Measurements taken from patent US20090069336A1, “PYRIMIDOTHIOPHENE COMPOUNDS” (VERNALIS (CAMBRIDGE) LIMITED., priority 2004, published 2009).
Where two headings read alike, the source gives them in different places.

Biological target: T1, human full-length HSP90 (Homo sapiens, UniProt P08238)
T1 construct: E. coli expressed human full-length HSP90 protein, purified >95%; made in house; host or cells: E. coli
Test: Fluorescence polarization assay (competitive displacement of probe RBT0051001-FAM from HSP90)
Type: binding
From the text: Fluorescence Polarization Assay
Fluorescence polarization {also known as fluorescence anisotropy} measures the rotation of a fluorescing species in solution, where the larger molecule the more polarized the fluorescence emission. When the fluorophore is excited with polarized light, the emitted light is also polarized. The molecular size is proportional to the polarization of the fluorescence emission.
The fluoroscein-labelled probe —RBT0051001-FAM—
binds to HSP90 {full-length human, full-length yeast or N-terminal domain HSP90} and the anisotropy {rotation of the probe:protein complex} is measured.
Test compound is added to the assay plate, left to equilibrate and the anisotropy measured again. Any change in anisotropy is due to competitive binding of compound to HSP90, thereby releasing probe.
Chemicals are of the highest purity commercially available and all aqueous solutions are made up in AR water. • 1) Costar 96-well black assay plate #3915 • 2) Assay buffer of (a) 100 mM Tris pH7.4; (b) 20 mM KCl; (c) 6 mM MgCl2. Stored at room temperature. • 3) BSA (bovine serum albumen) 10 mg/ml (New England Biolabs # B9001S) • 4) 20 mM probe in 100% DMSO stock concentration. Stored in the dark at RT. Working concentration is 200 nM diluted in AR water and stored at 4° C. Final concentration in assay 80 nM. • 5) E. coli expressed human full-length HSP90 protein, purified >95% (see, e.g., Panaretou et al., 1998) and stored in 50 μL aliquots at −80° C.
• 1) Add 100 μl 1× buffer to wells 11A and 12A (=FP BLNK) • 2) Prepare assay mix—all reagents are kept on ice with a lid on the bucket as the probe is light-sensitive.
• 3) Aliquot 100 μl assay mix to all other wells • 4) Seal plate and leave in dark at room temp for 20 minutes to equilibrate Compound Dilution Plate—1×3 dilution series • 1) In a clear 96-well v-bottom plate-{# VWR 007/008/257} add 10 μl 100% DMSO to wells B1 to H11 • 2) To wells A1 to A11 add 17.5 μl 100% DMSO • 3) Add 2.5 μl cpd to A1. This gives 2.5 mM {50×} stock cpd-assuming cpds 20 mM. • 4) Repeat for wells A2 to A10. Control in columns 11 and 12. • 5) Transfer 5 μl from row A to row B—not column 12. Mix well. • 6) Transfer 5 μl from row B to row C. […] In column 11 {provides standard curve} only add compound B11-H11. Add 2 μl of 100 mM standard cpd to wells B12-H12 {is positive control} • 13) The Z′ factor is calculated from zero controls and positive wells. It typically gives a value of 0.7-0.9.
The compounds tested in the above assay were assigned to one of two activity ranges, namely A=<10 μM; B=>10 μM, and those assignments are reported above.

[1] = activity range stated in each example, read-out: activity in the fluorescence polarization assay
[2] = Table 1, read-out: Hsp90 FP IC50

T1 sequence (P08238 whole entry): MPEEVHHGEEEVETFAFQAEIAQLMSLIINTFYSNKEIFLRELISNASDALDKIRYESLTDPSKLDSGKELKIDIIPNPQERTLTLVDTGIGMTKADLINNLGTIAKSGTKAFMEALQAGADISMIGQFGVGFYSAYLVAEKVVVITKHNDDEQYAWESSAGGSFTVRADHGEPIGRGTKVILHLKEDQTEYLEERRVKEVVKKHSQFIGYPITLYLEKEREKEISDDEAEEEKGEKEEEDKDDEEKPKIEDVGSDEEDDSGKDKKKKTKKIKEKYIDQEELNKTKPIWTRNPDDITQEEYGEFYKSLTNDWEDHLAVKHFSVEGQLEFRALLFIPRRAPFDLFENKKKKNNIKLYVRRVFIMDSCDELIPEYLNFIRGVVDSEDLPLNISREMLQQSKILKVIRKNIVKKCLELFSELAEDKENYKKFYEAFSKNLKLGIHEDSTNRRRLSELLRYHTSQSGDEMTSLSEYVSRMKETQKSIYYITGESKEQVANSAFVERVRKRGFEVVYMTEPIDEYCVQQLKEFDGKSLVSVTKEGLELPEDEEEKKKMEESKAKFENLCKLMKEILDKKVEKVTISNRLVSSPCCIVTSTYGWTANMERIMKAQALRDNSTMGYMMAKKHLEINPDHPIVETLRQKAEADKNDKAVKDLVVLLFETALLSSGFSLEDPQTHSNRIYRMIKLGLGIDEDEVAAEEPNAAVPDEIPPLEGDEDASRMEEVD

IC50 [1] [µM]	IC50 [2] [µM]	Structure (SMILES)
< 10		CC(=O)Nc1nc(C)c(-c2cc3c(-c4ccc(Cl)cc4Cl)nc(N)nc3s2)[nH]1 [Example 22, N-{5-[2-Amino-4-(2,4-dichloro-phenyl)-thieno[2,3-d]pyrimidin-6-yl]-4-methyl-1H-imidazol-2-yl}-acetamide]
< 10		CN1CCN(NC(=O)c2cc3c(-c4ccc(Cl)cc4Cl)nc(N)nc3s2)CC1 [Example 12, 2-Amino-4-(2,4-dichloro-phenyl)-thieno[2,3-d]pyrimidine-6-carboxylic acid (4-methyl-piperazin-1-yl) amide]
< 10		CCN(CC)CCOc1cc(-c2nc(N)nc3sc(/C(N)=N/O)cc23)c(Cl)cc1Cl [Example 30, 2-Amino-4-[2,4-dichloro-5-(2-diethylamino-ethoxy)-phenyl]-N-hydroxy-thieno[2,3-d]pyrimidine-6-carboxamidine]
< 10		Nc1nc(-c2ccc(Cl)cc2Cl)c2cc(-c3n[nH]c(N)n3)sc2n1 [Example 38, 6-(5-Amino-1H-[1,2,4]triazol-3-yl)-4-(2,4-dichloro-phenyl)-thieno[2,3-d]pyrimidin-2-ylamine]
< 10		Nc1nc(-c2ccc(Cl)cc2Cl)c2cc(C(=O)O)sc2n1 [Example 1, 2-Amino-4-(2,4-dichloro-phenyl)-thieno[2,3-d]pyrimidine-6-carboxylic acid]
< 10		CCN(CC)CCOc1cc(-c2nc(N)nc3sc(C#N)cc23)c(Cl)cc1Cl [Example 29, 2-Amino-4-[2,4-dichloro-5-(diethylamino-ethoxy)-phenyl]-thieno[2,3-d]pyrimidine-6-carbonitrile]
> 10		Cc1ccc(-c2nc(N)nc3sc(C(=O)O)cc23)c(C)c1 [Example 2, 2-Amino-4-(2,4-dimethyl-phenyl)-thieno[2,3-d]pyrimidine-6-carboxylic acid]
< 10		Nc1nc(-c2ccc(Cl)cc2Cl)c2cc(-c3ccc[nH]3)sc2n1 [Example 21, 4-(2,4-Dichloro-phenyl)-6-(1H-pyrrol-2-yl)-thieno[2,3-d]pyrimidin-2-ylamine]
	< 10	CNNC(=O)c1cc2c(-c3ccc(Cl)cc3Cl)nc(N)nc2s1 [Example 16]
< 10		CCN(CC)CCOc1cc(-c2nc(N)nc3sc(C4=NCCN4)cc23)c(Cl)cc1Cl [Example 31, 4-[2,4-dichloro-5-(2-diethylamino-ethoxy)-phenyl]-6-(4,5-dihydro-1H-imidazol-2-yl)-thieno[2,3-d]pyrimidin-2-ylamine]
< 10		Cc1ccc(-c2nc(N)nc3sc(C4=NCCN4)cc23)c(C)c1 [Example 11, 6-(4,5-Dihydro-1H-imidazol-2-yl)-4-(2,4-dimethyl-phenyl)-thieno[2,3-d]pyrimidin-2-ylamine]
< 10		CCC(=O)c1cc2c(-c3ccc(Cl)cc3Cl)nc(N)nc2s1 [Example 8, 1-[2-Amino-4-(2,4-dichloro-phenyl)-thieno[2,3-d]pyrimidine-6-yl]-propan-1-one]
< 10		Nc1nc(-c2ccc(Cl)cc2Cl)c2cc(C(=O)Nn3cnnc3)sc2n1 [Example 13, 2-Amino-4-(2,4-dichloro-phenyl)-thieno[2,3-d]pyrimidine-6-carboxylic acid [1,2,4]triazol-4-ylamide]
< 10		CCOC(=O)/C=C/c1cc2c(-c3cc(OCCN(CC)CC)c(Cl)cc3Cl)nc(N)nc2s1 [Example 41, 3-{2-Amino-4-[2,4-Dichloro-5-(2-diethylamino-ethoxy)-phenyl]-thieno[2,3-d]pyrimidin-6-yl}-acrylic acid ethyl ester]
> 10		Nc1nc(-c2ccc(Cl)cc2Cl)c2cc(C(O)(c3ccccc3)c3ccccc3)sc2n1 [Example 5, [2-Amino-4-(2,4-dichloro-phenyl)-thieno[2,3-d]pyrimidin-6-yl]-diphenyl-methanol]
< 10		CC(=O)NCc1cc2c(-c3ccc(Cl)cc3Cl)nc(N)nc2s1 [Example 26, N-[2-Amino-4-(2,4-dichloro-phenyl)-thieno[2,3-d]pyrimidin-6-ylmethyl]-acetamide]
< 10		NCc1cc2c(-c3ccc(Cl)cc3Cl)nc(N)nc2s1 [Example 25, 6-Aminomethyl-4-(2,4-dichloro-phenyl)-thieno[2,3-d]pyrimidin-2-ylamine]
< 10		Nc1nc(-c2ccc(Cl)cc2Cl)c2cc(-c3cnc[nH]3)sc2n1 [Example 24, 4-(2,4-Dichloro-phenyl)-6-(3H-imidazol-4-yl)-thieno[2,3-d]pyrimidin-2-ylamine]
< 10		CCN(CC)CCOc1cc(-c2nc(N)nc3sc(-c4n[nH]c(N)n4)cc23)c(Cl)cc1Cl [Example 39, 6-(5-Amino-1H-[1,2,4]triazol-3-yl)-4-[2,4-dichloro-5-(2-diethylamino-ethoxy)-phenyl]-thieno[2,3-d]pyrimidin-2-ylamine]
< 10		Nc1nc(-c2ccc(Cl)cc2Cl)c2cc(C(=O)c3ccccc3)sc2n1 [Example 9, [2-Amino-4-(2,4-dichloro-phenyl)-thieno[2,3-d]pyrimidine-6-yl]-phenyl-methanone]
< 10		Cc1cc(-c2cc3c(-c4ccc(Cl)cc4Cl)nc(N)nc3s2)[nH]n1 [Example 19, 4-(2,4-Dichloro-phenyl)-6-(5-methyl-2H-pyrazol-3-yl)-thieno[2,3-d]pyrimidin-2-ylamine]
< 10		Nc1nc(-c2cc(OCc3ccccc3)c(Cl)cc2Cl)c2cc(C(=O)O)sc2n1 [Example 37, 2-Amino-4-[5-benzyloxy-2,4-dichloro-phenyl]-thieno[2,3-d]pyrimidine-6-carboxylic acid]
	< 10	CONC(=O)c1cc2c(-c3ccc(Cl)cc3Cl)nc(N)nc2s1 [Example 14]
< 10		CCC(O)(CC)c1cc2c(-c3ccc(Cl)cc3Cl)nc(N)nc2s1 [Example 4, 3-[2-Amino-4-(2,4-dichloro-phenyl)-thieno[2,3-d]pyrimidin-6-yl]-pentan-3-ol]
< 10		CCN(CC)CCOc1cc(-c2nc(N)nc3sc(-c4nn[nH]n4)cc23)c(Cl)cc1Cl [Example 40, 4-[2,4-Dichloro-5-(2-diethylamino-ethoxy)-phenyl]-6-(2H-tetrazol-5-yl)-thieno[2,3-d]pyrimidin-2-ylamine]
< 10		Cc1ccc(-c2nc(N)nc3sccc23)c(C)c1 [Example 27, 4-(2,4-Dimethyl-phenyl)-thieno[2,3-d]pyrimidine-2-ylamine]
< 10		CCN(CC)CCOc1cc(-c2nc(N)nc3sc(CO)cc23)c(Cl)cc1Cl [Example 32, {2-amino-4-[2,4-dichloro-5-(2-diethylamino-ethoxy)-phenyl]-thieno[2,3-d]pyrimidin-6-yl}-methanol]
< 10		Cc1cn[nH]c1-c1cc2c(-c3ccc(Cl)cc3Cl)nc(N)nc2s1 [Example 20, 4-(2,4-Dichloro-phenyl)-6-(4-methyl-2H-pyrazol-3-yl)-thieno[2,3-d]pyrimidin-2-ylamine]
> 10		CC(C)(O)c1cc2c(-c3ccc(Cl)cc3Cl)nc(N)nc2s1 [Example 3, 2-[2-Amino-4-(2,4-dichloro-phenyl)-thieno[2,3-d]pyrimidin-6-yl]-propan-2-ol]
< 10		N#Cc1cc2c(-c3cc(OCc4ccccc4)c(Cl)cc3Cl)nc(N)nc2s1 [Example 28, 2-amino-4-(5-benzyloxy-2,4-dichloro-phenyl)-thieno[2,3-d]pyrimidine-6-carbonitrile]
